ChEMBL document CHEMBL1140111, “Potent, orally bioavailable delta opioid receptor agonists for the treatment of pain: discovery of N,N-diethyl-4-(5-hydroxyspiro[chromene-2,4'-piperidine]-4-yl)benzamide (ADL5859)” (J Med Chem, 2008)
The source made the active and inactive calls. The calls are words filed in the database; no cut-off is given here.

Legend:
[1] = target: T1, Kappa-type opioid receptor (Homo sapiens, UniProt P41145); test: Displacement of [3H]diprenorphine from human kappa opioid receptor in CHO cells at 10 uM; assay type: cell-based
Mu-type opioid receptor [2] = target: T2, Mu-type opioid receptor (Homo sapiens, UniProt P35372); test: Displacement of [3H]diprenorphine from human mu opioid receptor in CHO cells at 10 uM; assay type: cell-based
[3] = target: T3, Delta-type opioid receptor (Homo sapiens, UniProt P41143); test: biochemical
Description: Displacement of [3H]diprenorphine from human delta opioid receptor in CHO cells

[4] = target: T3, Delta-type opioid receptor
Description: Agonist activity at human delta opioid receptor in CHO cells assessed as stimulation of [35S]GTPgammaS binding

[5] = target: T1, Kappa-type opioid receptor; test: Displacement of [3H]diprenorphine from human kappa opioid receptor in CHO cells; assay type: cell-based
[6] = target: Voltage-gated inwardly rectifying potassium channel KCNH2 (Homo sapiens, UniProt Q12809)
Description: Inhibition of human ERG channel in HEK293 cells by voltage-clamp method

Rattus norvegicus [7] = test: Antihyperalgesic effect in rat assessed as reversal of Freund's complete adjuvant-induced paw pressure at 3 mg/kg, po in presence of naltrindole; assay type: functional, organism-based; design: dose 3 mg/kg
[8] = Cmax in rat at 0.25 mg/kg, iv and 3.0 mg/kg, po; assay type: ADME, organism-based; conditions: in vivo
Rattus norvegicus [9] = test: Convulsion activity in rat upto 1000 mg/kg, po; assay type: functional, organism-based; design: dose 1000 mg/kg
[10] = Fraction unbound in human plasma at 2 uM; assay type: ADME, cell-free; conditions: read-out: PPB
[11] = Oral bioavailability in dog at 3 mg/kg; assay type: ADME, organism-based, Canis lupus familiaris; conditions: in vivo
Rattus norvegicus [12] = organism: Rattus norvegicus; test: Antihyperalgesic effect in rat assessed as reversal of Freund's complete adjuvant-induced paw pressure after 60 mins; assay type: functional, organism-based
Mus musculus [13] = test: Increase in locomotory activity in mouse upto 1000 mg/kg, po; assay type: functional, organism-based; design: dose 1000 mg/kg
Rattus norvegicus [14] = test: Increase in locomotory activity in rat upto 1000 mg/kg, po; assay type: functional, organism-based; design: dose 1000 mg/kg
[15] = Fraction unbound in rat plasma protein at 2 uM; assay type: ADME, cell-free; conditions: read-out: PPB
Rattus norvegicus [16] = test: Antidepressant activity in Sprague-Dawley rat assessed as decrease in immobility time at 3 mg/kg, po by forced swim test; assay type: functional, organism-based; design: dose 3 mg/kg
Liver microsomes [17] = test: Metabolic stability in rat liver microsomes; assay type: ADME, Microsome
Rattus norvegicus [18] = test: Toxicity in rat assessed as EEG disturbances at 10 mg/kg and 30 mg/kg, po; assay type: organism-based; conditions: in vivo
[19] = Clearance in rat at 0.25 mg/kg, iv and 3.0 mg/kg, po; assay type: ADME, organism-based; conditions: in vivo
[20] = Oral bioavailability in rat at 3 mg/kg; assay type: ADME, organism-based; conditions: in vivo
[21] = Fraction unbound in dog plasma at 2 uM; assay type: ADME, cell-free, Canis lupus familiaris; conditions: read-out: PPB
Liver microsomes [22] = test: Metabolic stability in human liver microsomes; assay type: ADME, Microsome
[23] = Clearance in dog at 1 mg/kg, iv and 3.0 mg/kg, po; assay type: ADME, organism-based, Canis lupus familiaris; conditions: in vivo
Rattus norvegicus [24] = test: Antihyperalgesic effect in rat assessed as reversal of Freund's complete adjuvant-induced paw pressure at 3 mg/kg, po; assay type: functional
Rattus norvegicus [25] = organism: Rattus norvegicus; test: Antihyperalgesic effect in rat assessed as reversal of Freund's complete adjuvant-induced paw pressure after 30 mins; assay type: functional, organism-based
[26] = Metabolic stability in dog liver microsomes after 30 mins; assay type: ADME, Canis lupus familiaris, Microsome; conditions: read-out: Stability
Rattus norvegicus [27] = organism: Rattus norvegicus; test: Antihyperalgesic effect in rat assessed as reversal of Freund's complete adjuvant-induced paw pressure; assay type: functional
Mus musculus [28] = test: Convulsion activity in mouse upto 1000 mg/kg, po; assay type: functional, organism-based; design: dose 1000 mg/kg
Rattus norvegicus [29] = test: Antidepressant activity in Sprague-Dawley rat assessed as increase in time spent swimming at 3 mg/kg, po by forced swim test; assay type: functional, organism-based; design: dose 3 mg/kg
[30] = Volume of distribution at steady state in dog at 1 mg/kg, iv and 3.0 mg/kg, po; assay type: ADME, organism-based, Canis lupus familiaris; conditions: in vivo, read-out: Vdss
[31] = Cmax in dog at 1 mg/kg, iv and 3.0 mg/kg, po; assay type: ADME, organism-based, Canis lupus familiaris; conditions: in vivo
Mus musculus [32] = test: Increase in stereotypic behavior in mouse upto 1000 mg/kg, po; assay type: functional, organism-based; design: dose 1000 mg/kg
Rattus norvegicus [33] = test: Antidepressant activity in Sprague-Dawley rat assessed as increase in time spent swimming at 3 mg/kg, po in presence of naltrindole by forced swim test; assay type: functional, organism-based; design: dose 3 mg/kg
[34] = Half life in rat at 3.0 mg/kg, po; assay type: ADME, organism-based; design: dose 3 mg/kg, route oral; conditions: in vivo
[35] = Volume of distribution at steady state in rat at 0.25 mg/kg, iv and 3.0 mg/kg, po; assay type: ADME, organism-based; conditions: in vivo, read-out: Vdss
Rattus norvegicus [36] = test: Increase in stereotypic behavior in rat upto 1000 mg/kg, po; assay type: functional, organism-based; design: dose 1000 mg/kg
[37] = Half life in dog at 3.0 mg/kg, po; assay type: ADME, organism-based, Canis lupus familiaris; design: dose 3 mg/kg, route oral; conditions: in vivo
Mu-type opioid receptor [38] = target: T2, Mu-type opioid receptor; test: Displacement of [3H]diprenorphine from human mu opioid receptor in CHO cells; assay type: cell-based

T3 sequence (P41143 whole entry): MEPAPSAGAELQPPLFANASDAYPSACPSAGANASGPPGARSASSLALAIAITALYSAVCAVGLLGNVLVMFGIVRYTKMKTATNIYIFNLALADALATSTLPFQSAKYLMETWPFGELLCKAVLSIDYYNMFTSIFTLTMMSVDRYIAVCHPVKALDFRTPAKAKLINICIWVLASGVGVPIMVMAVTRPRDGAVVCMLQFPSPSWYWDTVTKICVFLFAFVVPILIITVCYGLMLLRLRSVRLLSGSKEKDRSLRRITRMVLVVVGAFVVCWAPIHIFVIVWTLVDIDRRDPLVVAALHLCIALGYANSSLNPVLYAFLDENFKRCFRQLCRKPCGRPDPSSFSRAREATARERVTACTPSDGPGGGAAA
Sequence of Voltage-gated inwardly rectifying potassium channel KCNH2 (Q12809 whole entry): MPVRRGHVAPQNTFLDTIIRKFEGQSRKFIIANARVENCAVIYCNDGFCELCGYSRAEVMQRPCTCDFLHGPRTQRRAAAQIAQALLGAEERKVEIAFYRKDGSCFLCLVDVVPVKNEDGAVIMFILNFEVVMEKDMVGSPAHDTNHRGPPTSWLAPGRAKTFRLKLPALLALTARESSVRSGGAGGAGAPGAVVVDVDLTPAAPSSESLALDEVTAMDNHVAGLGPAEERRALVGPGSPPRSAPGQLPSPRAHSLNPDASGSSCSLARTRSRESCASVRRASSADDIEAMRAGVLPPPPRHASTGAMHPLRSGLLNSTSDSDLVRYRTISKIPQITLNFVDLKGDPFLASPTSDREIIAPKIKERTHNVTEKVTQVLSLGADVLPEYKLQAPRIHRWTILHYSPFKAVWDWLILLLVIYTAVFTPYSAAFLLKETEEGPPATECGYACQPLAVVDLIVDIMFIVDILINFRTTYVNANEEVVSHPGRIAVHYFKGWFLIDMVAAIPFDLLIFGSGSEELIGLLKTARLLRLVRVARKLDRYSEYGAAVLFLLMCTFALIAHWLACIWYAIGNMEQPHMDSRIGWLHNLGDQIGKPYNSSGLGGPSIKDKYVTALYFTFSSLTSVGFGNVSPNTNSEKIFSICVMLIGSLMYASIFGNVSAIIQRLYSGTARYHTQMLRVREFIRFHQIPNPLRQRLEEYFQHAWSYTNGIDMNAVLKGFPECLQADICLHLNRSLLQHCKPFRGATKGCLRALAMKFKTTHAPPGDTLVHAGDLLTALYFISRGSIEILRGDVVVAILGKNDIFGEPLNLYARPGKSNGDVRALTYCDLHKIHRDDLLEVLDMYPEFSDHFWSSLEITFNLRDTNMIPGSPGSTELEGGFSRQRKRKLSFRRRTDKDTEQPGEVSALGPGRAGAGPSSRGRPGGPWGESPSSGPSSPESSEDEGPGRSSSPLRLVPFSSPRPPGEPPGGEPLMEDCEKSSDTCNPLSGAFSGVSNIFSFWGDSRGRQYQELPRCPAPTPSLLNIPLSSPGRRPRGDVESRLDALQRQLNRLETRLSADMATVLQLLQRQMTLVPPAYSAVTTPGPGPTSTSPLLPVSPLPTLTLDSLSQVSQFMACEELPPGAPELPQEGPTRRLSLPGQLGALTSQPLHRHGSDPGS
T1 sequence (P41145 whole entry): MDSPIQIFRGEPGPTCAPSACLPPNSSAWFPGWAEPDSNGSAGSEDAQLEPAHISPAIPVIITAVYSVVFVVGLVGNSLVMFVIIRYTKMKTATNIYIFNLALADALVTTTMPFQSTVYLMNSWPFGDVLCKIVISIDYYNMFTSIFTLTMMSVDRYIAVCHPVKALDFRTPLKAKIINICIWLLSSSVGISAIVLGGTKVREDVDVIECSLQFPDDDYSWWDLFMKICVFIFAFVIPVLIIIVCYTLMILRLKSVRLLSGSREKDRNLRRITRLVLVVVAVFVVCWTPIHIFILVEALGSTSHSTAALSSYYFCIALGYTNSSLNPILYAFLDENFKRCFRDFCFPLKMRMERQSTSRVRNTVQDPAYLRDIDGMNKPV
T2 sequence (P35372 whole entry): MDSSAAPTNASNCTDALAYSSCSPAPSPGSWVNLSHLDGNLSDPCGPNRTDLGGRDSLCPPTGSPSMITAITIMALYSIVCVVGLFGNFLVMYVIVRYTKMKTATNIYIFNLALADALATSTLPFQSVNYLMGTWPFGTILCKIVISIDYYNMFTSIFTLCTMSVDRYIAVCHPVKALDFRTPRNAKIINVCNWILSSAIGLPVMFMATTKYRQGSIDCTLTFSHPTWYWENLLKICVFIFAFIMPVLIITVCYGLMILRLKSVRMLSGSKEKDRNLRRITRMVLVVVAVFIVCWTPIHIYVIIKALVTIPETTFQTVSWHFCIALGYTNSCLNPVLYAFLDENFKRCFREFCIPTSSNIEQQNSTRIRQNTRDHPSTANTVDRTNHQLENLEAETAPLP

CCN(CC)C(=O)c1ccc(C2=CC3(CCNCC3)Oc3c(O)cccc32)cc1
inhibition [1]: 28% | inhibition (Mu-type opioid receptor [2]): 4% | Ki [3]: 360 nM

N#Cc1ccc(C2=CC3(CCNCC3)Oc3ccccc32)cc1
inhibition [1]: 63% | EC50 [4]: 200 nM | inhibition (Mu-type opioid receptor [2]): 60% | Ki [3]: 18 nM

CCN(CC)C(=O)c1ccccc1C1=CC2(CCNCC2)Oc2ccccc21
inhibition [1]: 45% | inhibition (Mu-type opioid receptor [2]): 12%

CCN(CC)C(=O)c1cccc(C2=CC3(CCNCC3)Oc3ccccc32)c1
inhibition [1]: 10% | inhibition (Mu-type opioid receptor [2]): 12% | Ki [3]: 330 nM

FC(F)(F)c1ccc(C2=CC3(CCNCC3)Oc3ccccc32)cc1
Ki [5]: 2000 nM | inhibition (Mu-type opioid receptor [2]): 42% | Ki [3]: 150 nM

CCN(CC)C(=O)c1ccc(C2=CC3(CCNCC3)Oc3cc(O)ccc32)cc1
inhibition [1]: 39% | inhibition (Mu-type opioid receptor [2]): 35%

C=CCN1C[C@H](C)N([C@H](c2ccc(C(=O)N(CC)CC)cc2)c2cccc(OC)c2)C[C@H]1C
inhibition [1]: 28% | inhibition (Mu-type opioid receptor [2]): 25%

c1ccc(C2CC3(CCNCC3)Oc3ccccc32)cc1 (stereo not given)
Ki [3]: 160 nM

COc1ccc(C2=CC3(CCNCC3)Oc3ccccc32)cc1
inhibition [1]: 42% | inhibition (Mu-type opioid receptor [2]): 42%

C1=C(c2ccccc2)c2ccccc2OC12CCNCC2
Ki [5]: 3400 nM | inhibition (Mu-type opioid receptor [2]): 42%

CCN(CC)C(=O)c1ccc(C2=CC3(CCN(C(C)=O)CC3)Oc3ccccc32)cc1
inhibition [1]: 2% | IC50 [6]: 47400 nM | inhibition (Mu-type opioid receptor [2]): 14% | Ki [3]: 1300 nM

CCN1CCC2(C=C(c3ccc(C(=O)N(CC)CC)cc3)c3ccccc3O2)CC1
inhibition [1]: 13% | inhibition (Mu-type opioid receptor [2]): 13%

CCN(CC)C(=O)c1ccc(C2=CC3(CCN(C)CC3)Oc3ccccc32)cc1
inhibition [1]: 24% | EC50 [4]: 89 nM | inhibition (Mu-type opioid receptor [2]): 12% | Ki [3]: 3.5 nM

COC(=O)c1ccc(C2=CC3(CCNCC3)Oc3ccccc32)cc1
Ki [5]: 520 nM | inhibition (Mu-type opioid receptor [2]): 54%

O=C(O)c1ccc(C2=CC3(CCNCC3)Oc3ccccc32)cc1
inhibition [1]: 14% | EC50 [4]: 220 nM | inhibition (Mu-type opioid receptor [2]): 13% | Ki [3]: 11 nM

CCN(CC)C(=O)c1ccc(C2=CC3(CCNCC3)Oc3cccc(O)c32)cc1 [ADL-5859]
inhibition [1]: 37% | Activity (Rattus norvegicus [7]): inactive | Cmax [8]: 117 nM | Activity (Rattus norvegicus [9]): Non-toxic | fraction unbound at 2 µM [10]: 0.419 | bioavailability [11]: 66.5% | Activity (Rattus norvegicus [12]): Active | Activity (Mus musculus [13]): Non-toxic | Activity (Rattus norvegicus [14]): Non-toxic | IC50 [6]: 78000 nM | fraction unbound at 2 µM [15]: 0.159 | Activity (Rattus norvegicus [16]): Active | Stability (Liver microsomes [17]): 69.2% | Activity (Rattus norvegicus [18]): Non-toxic | clearance [19]: 30 mL/min/kg | bioavailability [20]: 33.4% | fraction unbound at 2 µM [21]: 0.152 | Stability (Liver microsomes [22]): 64.9% | clearance [23]: 6.67 mL/min/kg | Activity (Rattus norvegicus [24]): 100% | Activity (Rattus norvegicus [25]): Active | remaining at 0.5 h [26]: 98.7% | ED50 (Rattus norvegicus [27]): 1.4 mg/kg | Activity (Mus musculus [28]): Non-toxic | Activity (Rattus norvegicus [29]): Active | Vd [30]: 2.5 L/kg | Cmax [31]: 1730 nM | Activity (Mus musculus [32]): Non-toxic | EC50 [4]: 20 nM | Activity (Rattus norvegicus [33]): inactive | half-life [34]: 5.3 h | Vd [35]: 10.7 L/kg | Activity (Rattus norvegicus [36]): Non-toxic | half-life [37]: 4.7 h | inhibition (Mu-type opioid receptor [2]): 32% | Ki [3]: 0.84 nM

Oc1ccc(C2=CC3(CCNCC3)Oc3ccccc32)cc1
inhibition [1]: 58% | IC50 [6]: 643 nM | EC50 [4]: 220 nM | inhibition (Mu-type opioid receptor [2]): 54% | Ki [3]: 59 nM

C=CCN1C[C@H](C)N([C@H](c2ccc(C(=O)N(CC)CC)cc2)c2cccc(O)c2)C[C@H]1C
Ki [1]: 130 nM | Ki (Mu-type opioid receptor [38]): 260 nM | Ki [5]: 3400 nM | EC50 [4]: 0.4 nM | Ki [3]: 0.32 nM

Cc1ccc(C2=CC3(CCNCC3)Oc3ccccc32)cc1
inhibition [1]: 57% | inhibition (Mu-type opioid receptor [2]): 49%

CCN(CC)C(=O)c1ccc(C2=CC3(CCNCC3)Oc3ccc(O)cc32)cc1
IC50 [6]: 19800 nM | Activity (Rattus norvegicus [24]): 35% | Ki [5]: 830 nM | EC50 [4]: 1.4 nM | inhibition (Mu-type opioid receptor [2]): 36% | Ki [3]: 0.43 nM

O=S(=O)(Cc1ccc(Cl)cc1)N1CCC2(CC1)CC(c1ccccc1)c1ccccc1O2 (stereo not given)
Ki [3]: 500 nM
